Results: publication PMC10671074, “Tumor Regression upon Intratumoral and Subcutaneous Dosing of the STING Agonist ALG-031048 in Mouse Efficacy Models” (International Journal of Molecular Sciences, 2023)

Assays:
HEK 293 reporter cells = experiment: Cell viability of HEK 293 reporter cells (CellTiter-Glo); settings: concentrations up to 1000 nM
Procedure: Assays were set up after allowing cells to adhere for 48 h. Compounds dissolved in water were serially diluted in dosing buffer containing 10 µg/mL of digitonin (MP Biomedicals, Solon, OH, USA). Media were aspirated from the cells, and 50 µL of buffer with compound was added in triplicate. […] The next day, 20 µL of media was transferred to two new plates, and either 50 µL of QuantiLuc™ (Invivogen) to measure IFN-β expression or 80 µL of QuantiBlue™ (Invivogen) to measure IRF activity were added. […] An aliquot of 100 µL of CellTiter-Glo® (Promega, Madison, WI, USA) was added to the original plate still containing the cells, and luminescence was determined to measure viability. All readouts were measured on an Envision plate reader from Perkin Elmer. Data were analyzed using GraphPad™ Prism’s version 8.0 [Agonist] vs. response—variable slope (four parameters) model.
with increasing concentrations of the STING agonists or IFN‐β. After 24 hours, IRF reporter activity

[1] = test system: THP-1 cells (STING isoform HAQ); experiment: THP-1 cytokine (IP-10) release assay; format: cell-based, human; settings: overnight incubation, THP-1 (STING HAQ)
Procedure: THP-1 cells (American Type Culture Collection, Manassas, VA, USA) were maintained in maintenance media consisting of RPMI-1640, 1% Pen-Strep, 1% NEAA, 1% Glutagro™, 1% HEPES (all Corning), and 10% FBS (Sigma-Aldrich). On the day of dosing, cells were pelleted and resuspended in fresh media to a density of 1.6 × 10^6 cells/mL. An aliquot of […] was added to each well of a 96-well U-bottom plate for a total of 1.0 × 10^5 cells per well, and the final volume was adjusted to 150 µL using fresh media. Compound dilutions were prepared in maintenance media, and 50 µL of diluted compound were added to wells in duplicate. Cells were incubated with the compound overnight at 37 °C. The next day, plates were centrifuged, and the supernatant was collected in a 96-well flat-bottom plate. Human IP-10 was detected using the ProQuantum Immunoassay kit (Thermo Fisher Scientific, Waltham, MA, USA). Data were analyzed using a standard curve and reported as fold-increase over background. Graphs were generated using GraphPad™ Prism version 8.0.

STING R232 = STING R232 (Homo sapiens, UniProt Q86WV6, H232R); experiment: HEK 293 STING R232 IFN-β reporter assay; format: cell-based; set-up: host or cells: 293T-Dual hSTING-R232 (HEK 293T derived); settings: HEK 293 STING R232 cells, digitonin dosing buffer 30 min, 20 h; mean±standard deviation; read-out: Reporter Cell Assay EC50, STING R232 IFN-β
Chain of STING R232 (Q86WV6 whole entry H232R): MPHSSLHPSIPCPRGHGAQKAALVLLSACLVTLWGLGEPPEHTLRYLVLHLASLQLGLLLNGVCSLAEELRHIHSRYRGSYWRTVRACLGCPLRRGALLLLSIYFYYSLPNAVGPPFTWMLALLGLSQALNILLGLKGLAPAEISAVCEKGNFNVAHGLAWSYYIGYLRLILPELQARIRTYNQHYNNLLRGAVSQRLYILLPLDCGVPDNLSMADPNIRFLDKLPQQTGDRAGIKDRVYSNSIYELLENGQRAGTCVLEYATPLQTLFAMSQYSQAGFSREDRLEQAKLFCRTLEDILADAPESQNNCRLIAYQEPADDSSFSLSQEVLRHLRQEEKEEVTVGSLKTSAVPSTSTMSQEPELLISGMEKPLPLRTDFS
Procedure: Assays were set up after allowing cells to adhere for 48 h. Compounds dissolved in water were serially diluted in dosing buffer containing 10 µg/mL of digitonin (MP Biomedicals, Solon, OH, USA). Media were aspirated from the cells, and 50 µL of buffer with compound was added in triplicate. […] An aliquot of 100 µL of CellTiter-Glo® (Promega, Madison, WI, USA) was added to the original plate still containing the cells, and luminescence was determined to measure viability. All readouts were measured on an Envision plate reader from Perkin Elmer. Data were analyzed using GraphPad™ Prism’s version 8.0 [Agonist] vs. response—variable slope (four parameters) model.

Hepa1–6 tumors = experiment: Hepa1–6 mouse hepatocellular carcinoma model; format: in vivo
Procedure: The animals were fed ad libitum water (0.2-μm filtered, reverse osmosis, autoclaved), and standard irradiated rodent chow. The mice were housed on autoclaved, crushed corncob bedding, which was changed weekly, on a 12 h light cycle at 20–26 °C and 40–70% humidity.
The Hepa1–6 tumor cells were maintained in vitro in DMEM supplemented with 10% FBS at 37 °C in an atmosphere of 5% CO2 in air. Cells in the exponential growth phase were harvested and quantitated using a cell counter, adjusted to 5 × 10^7/mL in PBS before tumor inoculation.
Each mouse was inoculated subcutaneously in the right front flank region with Hepa1–6 tumor cells (5 × 10^6) in 0.1 mL PBS for tumor development. After tumor cell inoculation, the animals were checked daily for morbidity and mortality and for any effects of tumor growth or test articles on behavior such as mobility, food and water consumption, eye/hair matting, and any other abnormalities. Dosing started when the average tumor volume reached 98 mm^3. The anti-PD-1 antibody was dosed IP at 10 mg/kg twice per week (BIW), while ALG-031048 was dosed IT at 25 and 100 μg/animal on Days 1, 5, and 9. Tumor volumes were measured […], as described above.
Figure S6. A: Tumor regression in Hepa1‐6 tumor‐bearing […] mice upon IT treatment with three doses of 25 μg (light blue) or 100 μ g ALG‐031048 (dark blue), in comparison to treatment with 10 mg/kg anti‐PD‐1 antibody twice per week, 6 doses total (red). Vehicle‐treated animals are shown in black; shown are the mean tumor volumes ± standard deviation for each group of 10 animals.
Irregular, crater‐shaped tumors prevented accurate tumor volume measurement between Days 8‐
25. Treatment started when tumors reached an average volume of 98 mm3. Statistical analysis pro‐ vided in Table S4. B: Tumor weight for each group at the end of the study. Statistical analysis pro‐ vided in Table S5. C: Plasma cytokine levels 6 hours after the first dose. Each symbol represents one animal as well as the mean of the group (n=10). Unpaired t‐test was used to compare different groups: all groups for al l cytokines were statistically significant from each other with P‐values of < 0.0001 with the following exceptions: vehicle vs anti‐PD‐1 were non‐significant (all cytokines); the […]

plasma cytokines = experiment: Plasma cytokine analysis in CT26-tumor-bearing mice; format: in vivo, mouse; settings: CT26-bearing BALB/c, one IT dose of 100 μg, 4 h after dosing
Procedure: Plasma levels of IFN-α, IFN-β, IL-2, TNF-α, IL-6, IL-12, IP-10, IFN-γ, and MCP-1 (in pg/mL) were measured using the ProcartaPlex 9-Plex (ThermoFisher Scientific) according to the manufacturer’s instructions. Data were processed using Milliplex Analyst software version 5.1 on a MAGPIX instrument (Luminex Corp., Austin, TX, USA).
Figure S5. Plasma cytokine levels in female BALB/c mice bearing SC CT26 tumors receiving one IT dose of 100 μg ADU‐S100 or ALG‐031048, at a mean TV of 116 mm3. Cytokine concentrations were analyzed 4 hours after dos ing. Only statistically significant differences (unpaired, parametric t test) are indicated by brackets.
(also on this page, place not known: pg/ml pg/ml pg/ml pg/ml pg/ml pg/ml pg/ml pg/ml pg/ml dosing.) […]
1 mg 4 mg Saline 25 g/kg S /kg SC
Figure S8. Cytokine induction in CT26 tumor‐bearing mice upon SC administration of ALG‐031048.
10 mice per group were treated with 3 doses 3 days apart. Plasma samples were collected 6 hours […]

subcutaneous CT26 tumors = experiment: CT26 mouse colon carcinoma model
Procedure: Each mouse was inoculated subcutaneously in the right flank with 3 × 10^5 CT26 cells (in 0.1 mL PBS) for tumor development.
PBS was used as the vehicle control. […] Vehicles and test compounds were administered IT q3d × 3 in a volume of 0.05 mL. SC administration was performed between the shoulder blades at a dosing volume of 10 mL/kg. Tumors were measured twice a week in two dimensions using calipers, and volume was calculated using Formula (1):Tumor Volume (mm^3) = 0.5 (w^2 × l)(1)
Here, w = width and l = length, in mm, of a tumor.
Tumor weight was estimated with the assumption that 1 mg is equivalent to 1 mm^3 of tumor volume.
Animals were euthanized when (1) their tumor reached the endpoint volume of 2000 mm^3, (2) their body weight loss exceeded 30%, or (3) on the last day of the study, whichever came first. The TTE for analysis was calculated for each mouse by the following Equation (2):TTE = (log10 (endpoint volume) − b)/m(2)
TTE is expressed in days, endpoint volume is expressed in mm^3, b is the intercept, and m is the slope of the line obtained via linear regression of a log-transformed tumor growth data set. […] Animals were weighed on Days 1–5, then twice weekly for the duration of the study.

## CO[C@H]1[C@H]2OP(=O)(O)OC[C@@]34C[C@@H]3[C@@H](n3cnc5c(N)ncnc53)[C@H](O)[C@@H]4O[P@](=O)(S)OC[C@H]1O[C@H]2n1cnc2c(=O)[nH]c(N)nc21 [ALG-031048]
HEK 293 reporter cells
  Cell viability of HEK 293 reporter cells: did not cause any loss of cell viability
[1]
  Release of IP-10 in THP-1 cells: dose-dependent release of IP-10
STING R232
  EC50: 132 nM
Hepa1–6 tumors; Hepa1–6, IT 25 and 100 μg
  Tumor weight at end of study: reduction in tumor weight
Hepa1–6 tumors; Hepa1–6, three IT doses of 25 μg (Days 1, 5, 9)
  Tumor reduction at end of study: 12%
Hepa1–6 tumors; Hepa1–6, three IT doses of 100 μg (Days 1, 5, 9)
  Mean tumor reduction at end of study: 88%
Hepa1–6 tumors; Hepa1–6 model
  Complete tumor regression, animals: 100%
Plasma cytokines
  Plasma cytokines after IT dosing: increased cytokines such as IFN-α and -β, TNF-α, interleukin 6 (IL-6), MCP-1, and IP-10
Subcutaneous CT26 tumors; CT26, 4 mg/kg SC, 3 × q3d
  Animals with complete response (TV < 10 mm^3) at end of study: one
Subcutaneous CT26 tumors; Table 2 study, 100 μg IT, three doses
  Animals with tumors regressed and undetectable at end of study: 9 of 10
